Data from patent US20040192699A1, “Optic nerve protecting agents containing alpha1 receptor blocker as active ingredient” (Santen Pharmaceutical Co., Ltd., priority 2001, published 2004).
Structures can show the parent of a compound that is named as a salt.

Key:
[1] = tested on: rat fetal retinal nerve cells in culture; experiment: Death of rat fetal retinal nerve cells in culture induced by glutamate addition (trypan blue dye exclusion); assay type: cell-based; conditions: 10 min, then 1 h drug-free, average
Description: (1) The action of the α1 receptor blocker on the death of rat fetal retinal nerve cells in culture as induced by glutamate addition
Retinal cells were taken out of a rat fetus (age of E18 days) and isolated, then cultured in an Eagle's basal culture medium containing 10% bovine fetus serum on a polyethylene imine-coated plastic cover slip for 7 days (37° C., 5% CO2/95% air). On the eighth day and thereafter, the cells were cultured in an Eagle's basal culture medium containing 10% horse serum. On the sixth day of the cultivation, cytosine arabinoside (10 μM) was added to suppress the growth of non-neuronal cells. On the eleventh day of the cultivation, the cells were cultured in a serum-free Eagle's basal culture medium supplemented with glutamate (1 mM) and an a, receptor blocker, for 10 minutes. Then, the cells were transferred to a serum-free Eagle's basic culture medium with no content of glutamate and an α1 receptor blocker, and cultured for one hour. Subsequently, toxicity was determined by the trypan blue dye exclusion method. Specifically, the cells were stained with 1.5% trypan blue solution for 10 minutes, fixed in 10% neutral formalin solution and rinsed with physiological saline. Subsequently, the cells were counted with a phase contrast microscope. The cells stained with trypan blue were defined as dead cells, while the cells never stained were defined as live cells. Based on the rate of the live cells to the total cells (200 or more), the survival rate of the culture cells was determined. A group with the addition of 1 mM glutamate alone and a group with the addition of both 1 mM glutamate and an α1 receptor blocker were defined as “1 mM glutamate single-addition group” and “group of 1 mM glutamate+α1 receptor blocker addition”, respectively. […] At this experiment, bunazosin hydrochloride, prazosin hydrochloride, terazosin hydrochloride and naftopidil hydrochloride were used as such α1 receptor blockers.

[2] = tested on: rat fetal retinal nerve cells in culture; experiment: Death of rat fetal retinal nerve cells in culture induced by serum elimination (trypan blue dye exclusion; TUNEL method); assay type: cell-based; parameters: dose or concentration left out as unconfirmed; conditions: serum elimination + test compound, 24 hours, average
Description: (2) The action of the a, receptor blocker on the death of rat fetal retinal nerve cells in culture as induced by serum elimination
Retinal cells were taken out of a rat fetus (age of E18 days) and isolated, then cultured in an Eagle's basal culture medium containing 10% bovine fetus serum on a polylysine-coated glass cover slip for 7 days (37° C., 5% CO2/95% air). On the eighth day and thereafter, the cells were cultured in an Eagle's basal culture medium containing 10% horse serum. On the sixth day of the cultivation, cytosine arabinoside (10 μM) was added to suppress the growth of non-neuronal cells. […] Subsequently, toxicity was determined by the trypan blue dye exclusion method. Specifically, the cells were stained with 1.5% trypan blue solution for 10 minutes, fixed in 10% neutral formalin solution and rinsed with physiological saline. Subsequently, the cells were counted with a phase contrast microscope. […] Based on the rate of the live cells to the total cells (200 or more), the survival rate of the culture cells was determined. Using the TUNEL method, additionally, the TUNEL-positive cells (apoptosis cells) increasing due to the serum elimination and the TUNEL-negative cells (live cells) were counted, to calculate the rate of the TUNEL-positive cells to the total cells. […]

[3] = 1 mM glutamate + 10 μM test compound
[4] = 1 mM glutamate + 0.1 μM test compound

SMILES | Survival rate (%) of retinal nerve cells in culture [1, 3] [%] | Survival rate (%) of retinal nerve cells in culture ([1]; 1 mM glutamate + 100 μM test compound) [%] | Rate (%) of TUNEL-positive cells ([2]; TUNEL method) [%] | Survival rate (%) of retinal nerve cells in culture [2] [%] | Survival rate (%) of retinal nerve cells in culture [1, 4] [%] | Survival rate (%) of retinal nerve cells in culture ([1]; 1 mM glutamate + 1 μM test compound) [%] | Survival rate (%) of retinal nerve cells in culture ([1]; 1 mM glutamate + 0.01 μM test compound) [%]
CCCC(=O)N1CCCN(c2nc(N)c3cc(OC)c(OC)cc3n2)CC1 [bunazosin HCl, bunazosin hydrochloride] | 55.2 | 55.9 | 13 | 80 | – | – | –
COc1ccccc1N1CCN(CC(O)COc2cccc3ccccc23)CC1 (stereo not shown) [naftopidil HCl, naftopidil hydrochloride] | 68.9 | – | – | – | 59.2 | – | –
COc1cc2nc(N3CCN(C(=O)c4ccco4)CC3)nc(N)c2cc1OC [prazosin HCl, prazosin hydrochloride] | 67.1 | – | – | – | – | 65.2 | –
COc1cc2nc(N3CCN(C(=O)C4CCCO4)CC3)nc(N)c2cc1OC (stereo not shown) [terazosin HCl, terazosin hydrochloride] | – | – | – | – | 70.7 | – | 69.8
